14 molecules from ChEMBL document CHEMBL1148698, “Chemotherapy of leishmaniasis. Part VII: synthesis and bioevaluation of substituted terpenyl pyrimidines” (2007) can be followed below.

Structures are written as SMILES. Activity calls are given as the source filed them. No cut-off for these calls is given here.

The first assay relates to Leishmania donovani. The assay is described as follows: Antileishmanial activity against Leishmania donovani HOM/IN/80DD8 in hamster at 50 mg/kg, ip after 7 days.
Conditions: not given
Regarding `CC1=C(/C=C/c2cc(Nc3ccc(F)cc3)nc(N)n2)C(C)(C)CCC1`, the outcome was inactive.

Regarding `CC1=C(/C=C/c2cc(N3CCNCC3)nc(N)n2)C(C)(C)CCC1`, the outcome was inactive.

With `CC1=C(/C=C/c2cc(N3CCN(c4ccccc4)CC3)nc(N)n2)C(C)(C)CCC1`, the outcome was inactive.

Turning to `COc1ccc(Nc2cc(/C=C/C3=C(C)CCCC3(C)C)nc(N)n2)cc1`, the result was inactive.

On to `CC1=C(/C=C/c2cc(NN)nc(N)n2)C(C)(C)CCC1`, for which the outcome was inactive.

As to `CC1=C(/C=C/c2cc(N3CCCCC3)nc(N)n2)C(C)(C)CCC1`, the result was inactive.

`CC1=C(/C=C/c2cc(Nc3cccc(F)c3)nc(N)n2)C(C)(C)CCC1`: the result was inactive.

In the case of `CC1=C(/C=C/c2cc(N3CCOCC3)nc(N)n2)C(C)(C)CCC1`, the result was inactive.

With `CC1=C(/C=C/c2cc(Nc3ccc(Cl)cc3)nc(N)n2)C(C)(C)CCC1`, the outcome was inactive.

In the case of `CC1=C(/C=C/c2cc(NCc3ccccc3)nc(N)n2)C(C)(C)CCC1`, the result was inactive.

Turning to `CC1=C(/C=C/c2cc(NC3CCCCC3)nc(N)n2)C(C)(C)CCC1`, the outcome was inactive.

Still in this assay, the particulars now being: HOM/IN/80DD8, ip, 168 h.
As usually defined, the inhibition in vivo is the share of the control response that was lost under treatment. Low readings indicate little suppression, high ones strong suppression. The molecule `CCN(c1ccccc1)c1cc(/C=C/C2=C(C)CCCC2(C)C)nc(N)n1` came in with an inhibition in vivo at 50 mg/kg of 40%.

Consider `CC1=C(/C=C/c2cc(Nc3ccccc3)nc(N)n2)C(C)(C)CCC1`, for which 50 mg/kg produced 31% inhibition in vivo.

As to `CSc1cc(/C=C/C2=C(C)CCCC2(C)C)nc(N)n1`, 50 mg/kg produced 66% inhibition in vivo.
